In patent US11135186B2, “Regulators of the endoplasmic reticulum proteostasis network” (The Scripps Research Institute, priority 2015, dated 2021):

How the values were obtained:
^FTTTR^WT = experiment: [35S] metabolic labeling, secretion of flag-tagged TTR^WT from HepG2^ATF6 cells; format: cell-based; conditions: 15 h pretreatment, 10 μM compound or 1 μM Tg, 4 h chase
Description: HepG2 cells or HEK293T cells plated on poly-D-lysine coated plates were metabolically labeled in DMEM-Cys/-Met (CellGro) supplemented with glutamine, penicillin/streptomycin, dialyzed fetal bovine serum, and EasyTag EXPRESS^35S Protein Labeling Mix (Perkin Elmer) for 30 min. Cells were washed twice with complete media and incubated in prewarmed DMEM for the indicated times. Media or lysates were harvested at the indicated times. Lysates were prepared in RIPA buffer with fresh protease inhibitor cocktail (Roche). FLAG tagged TTR variants or ALLC were immunopurified using M1 anti-FLAG agarose beads (Sigma-Aldrich) and washed three times with RIPA buffer. The immunoisolates were then eluted by boiling in Laemmli buffer and separated on SDS-PAGE. For total secreted media, 15 uL aliquots from media incubated for 4 hrs on pulsed cells were run on a SDS-PAGE. The gels were then dried, exposed to phosphorimager plates (GE Healthcare), and imaged with a Typhoon imager. Band intensities were quantified by densitometry in ImageQuant. Fraction secreted was calculated using the equation: fraction secreted=[extracellular [^35S]-LC signal at t=t/(extracellular [^35S]-LC signal at t=0+intracellular [^35S]-LC signal at t=0)]. Fraction remaining was calculated using the equation: [(extracellular [^35S]-LC signal at t=t+intracellular [^35S]-LC signal at t=t)/(extracellular [^35S]-LC signal at t=0+ intracellular [^35S]-LC signal at t=0)].

ALMC-2 cells = experiment: ALMC-2 cell viability (CellTiter-Glo); format: cell-based, human; conditions: 10 μM
Description: HepG2 cells were plated at 5,000 cells/well in a translucent, flat-bottomed 96 well plate, and treated for 48 hr with vehicle, 10 μM Tg or 10 μM ER proteostasis regulator. ALMC-2 or KAS-6/1 cells were plated at 33,000 cells/well in 96-well plates then treated with proteostasis regulators for 16 h as described. Cell metabolic activity was measured using the CellTiter-Glo assay (Promega), which reports on intracellular ATP concentration. CellTiter-Glo reagent was added to cell culture media at a 1:1 ratio and incubated for 2 minutes on an orbital shaker to induce cell lysis. The plate was then incubated at room temperature for 10 minutes to stabilize the luminescent signal and read on a Tecan F200 Pro microplate reader.

[1] = system: ALLC (amyloidogenic light chain); experiment: Light chain ELISA, ALLC from ALMC-2 plasma cells; format: cell-based, human; conditions: ALMC-2 cells; for EC50: read-out: EC50 of dose dependent reduction in ALLC secretion
Description: ALMC-2 or KAS-6/1 plasma cells were plated 100,000 cells/well in 150 μL of media in 96-well MultiScreenHTS filtration plates (Millipore MSBVS1210). Triplicate wells were treated with DMSO or compounds at the indicated concentrations and incubated for 16 h. Media was removed by filtration using a QIAvac 96 vacuum manifold (Qiagen) and wells were washed two times with 150 μL media. Wells were then incubated with 150 μL of fresh media for 2 hr and the conditioned media was harvested into a 96-well plate using the vacuum manifold. Free λLC and IgG concentrations were determined by ELISA in 96-well plates (Immulon 4HBX, Thermo Scientific). Wells were coated overnight at 37° C. with rabbit anti-human A light chain polyclonal antibody (Bethyl Laboratories, A90-112A) at a 1:1000 dilution or human IgG-heavy and light chain antibody (Bethyl Laboratories, A80-118A) at a 1:2000 dilution in 50 mM sodium carbonate (pH 9.6). In between all incubation steps, the plates were rinsed extensively with Tris-buffered saline containing 0.05% Tween-20 (TBST). Plates were blocked with 5% non-fat dry milk in TBST for 1 h at 37° C. Media analytes were diluted between 5-200 fold in 5% non-fat dry milk in TBST and 100 μL of each sample was added to individual wells. Light chain or IgG standards ranging from 3-300 ng/mL were prepared from purified human Bence Jones A light chain or human reference serum (Bethyl Laboratories, P80-127 and RS10-110). Plates were incubated at 37° C. for 1.5 h while shaking. Finally, HRP-conjugated goat anti-human A light chain antibody (Bethyl Laboratories, A80-116P) was added at a 1:10,000 dilution or HRP-conjugate IgG-Fc fragment cross-adsorbed antibody (Bethyl Laboratories, A80-304P, 1:30,000 dilution) was added in 5% non-fat dry milk in TBST, followed by a 1.5 h incubation of the plates at 37° C. The detection was carried out with 2,2′-azinobis(3-ethylbenzothiazoline-6-sulfonic acid) (ABTS, 0.18 mg/mL) and 0.03% hydrogen peroxide in 100 mM sodium citrate pH 4.0. Detection solution (100 μL) was added to each well and the plates were incubated at room temperature. The absorbance was recorded at 405 nm and the values for the LC standards were fitted to a 4-parameter logistic function. Light chain or IgG concentrations were averaged from at least 3 independent replicates under each treatment and then normalized to vehicle conditions.

## Cc1ccc(O)c(N/C=C/C(=O)c2ccc(F)cc2)c1 [Compound 132]
^FTTTR^WT
  ^FTTTR^WT secretion (in words): did not significantly influence
ALMC-2 cells
  reduction in cell viability: 45%
[1]
  EC50: ~1000 nM

## O=[N+]([O-])c1ccc(N/N=C/c2ccccc2O)cc1 [Compound 263]
^FTTTR^WT
  ^FTTTR^WT secretion (in words): did not significantly influence
[1]; 10 μM
  ALLC secretion (in words): only minimally affects

## Cc1ccc(O)c(NC(=O)CCc2ccccc2)c1 [Compound 147]
^FTTTR^WT
  ^FTTTR^WT secretion (in words): did not significantly influence
ALMC-2 cells
  cell viability (in words): do not significantly affect
[1]; 10 μM pretreatment, ELISA
  reduction of ALLC secretion: 60%
[1]; ELISA
  ALLC intracellular protein levels: unchanged
[1]
  EC50: ~1000 nM
